Among the test systems are OVCAR-4 ovarian; K-562 leukemia; LOX IMVI melanoma; OVCAR-8 ovarian; T-47D breast; UACC-62 melanoma; UO-31 renal; NCI-H226 lung.
What all share (assay): inhibition of tumour cell growth, NCI panel, 48 h

The record followed here is PubChem BioAssay (NCI).

Molecules are shown by their SMILES.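 48-hour exposure; five concentrations; linearly interpolated endpoints. GI50: concentration for 50% inhibition of growth. TGI marks complete inhibition of growth.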

For `CN1CCN(CCOc2ccc(-c3cnc4c(-c5cccc(F)c5)cnn4c3)cc2)CC1`, the GI50 in the assay on OVCAR-4 ovarian was 1.93 µM; with K-562 leukemia, 0.915 µM; in the assay on LOX IMVI melanoma, 1.84 µM; in the assay on OVCAR-8 ovarian, 2.45 µM; with T-47D breast it was 1.52 µM; with UACC-62 melanoma, 1.73 µM. Also, the GI50 in the assay with UO-31 renal is 1.47 µM. Further, the TGI in the assay on OVCAR-4 ovarian is 5.75 µM; in the assay on K-562 leukemia, 3.48 µM; in the assay with LOX IMVI melanoma it was 3.35 µM; in the assay on OVCAR-8 ovarian it was 7.12 µM; in the assay on T-47D breast it was 3.71 µM; in the assay with UACC-62 melanoma, 3.29 µM. The TGI in the assay with UO-31 renal worked out at 3.37 µM.

As to `CCCCCCCC(=O)OCCCC1[C@]2(C)CC[C@@]3(C)C([C@H](C)CCC=C(C)C)CC[C@]3(C)C2CC[C@]12OC2(C)C` (stereo partly specified), the GI50 in the assay on NCI-H226 lung is 22.8 µM; in the assay with OVCAR-4 ovarian, 78.9 µM; in the assay with K-562 leukemia it was 44.1 µM; with OVCAR-8 ovarian, 64 µM; with T-47D breast it was 35.7 µM; in the assay with UACC-62 melanoma, 17.6 µM. Moreover, the GI50 in the assay with UO-31 renal is 31.9 µM. The TGI in the assay on NCI-H226 lung was 92.3 µM; with OVCAR-4 ovarian it was over 100 µM; with K-562 leukemia, over 100 µM; with OVCAR-8 ovarian, over 100 µM; in the assay on T-47D breast it was over 100 µM; with UACC-62 melanoma, 78 µM. Also, the TGI in the assay on UO-31 renal was over 100 µM.

On to `Cc1cc(Nc2nc(C(=O)Nc3ccccc3)nc3ccccc23)n[nH]1`, for which the GI50 in the assay with NCI-H226 lung was 10 µM; in the assay with OVCAR-4 ovarian, 7.87 µM; with K-562 leukemia, 7.94 µM; in the assay with LOX IMVI melanoma, 4.47 µM; with OVCAR-8 ovarian, 14.5 µM; with T-47D breast it was 6.61 µM. Besides, the GI50 in the assay with UO-31 renal was 1.3 µM. Also, the TGI with NCI-H226 lung, in the assay with OVCAR-4 ovarian, in the assay on K-562 leukemia, in the assay on LOX IMVI melanoma, in the assay on OVCAR-8 ovarian and in the assay with T-47D breast was over 25 µM each time. Moreover, the TGI in the assay with UO-31 renal is over 25 µM.

`CNNC(=N\S(=O)(=O)c1cc(C)c(Cl)cc1SCc1ccccc1)/N=C/c1ccc([N+](=O)[O-])s1`: the GI50 was over 100 µM with OVCAR-4 ovarian; 28.4 µM in the assay on K-562 leukemia; over 77.2 µM in the assay with LOX IMVI melanoma; over 100 µM with OVCAR-8 ovarian; over 100 µM with T-47D breast; 47.9 µM with UACC-62 melanoma. Also, the GI50 with UO-31 renal is over 100 µM. Besides, the TGI in the assay on OVCAR-4 ovarian, in the assay with K-562 leukemia, in the assay on LOX IMVI melanoma, with OVCAR-8 ovarian, in the assay with T-47D breast and with UACC-62 melanoma was over 100 µM throughout. The compound further gave a TGI with UO-31 renal of over 100 µM.

For `NCCCCC1NC(=O)C(CC(=O)O)NC(=O)CNC(=O)C(CCCN=C(N)N)NC(=O)C(N)CSSCC(C(=O)O)NC(=O)C(CC(=O)O)NC(=O)C2CCCN2C(=O)CNC1=O` (stereo unspecified), the GI50 with NCI-H226 lung, in the assay with OVCAR-4 ovarian, in the assay with LOX IMVI melanoma, in the assay with OVCAR-8 ovarian, in the assay with T-47D breast and in the assay with UACC-62 melanoma was over 100 µM each time. Besides, in the assay with UO-31 renal, the GI50 is over 100 µM. The TGI with NCI-H226 lung, in the assay on OVCAR-4 ovarian, in the assay with LOX IMVI melanoma, with OVCAR-8 ovarian, in the assay on T-47D breast and in the assay with UACC-62 melanoma was over 100 µM in each case. Besides, the TGI in the assay on UO-31 renal was over 100 µM.

On to `CCOC(=O)c1c(C)n(Cc2ccc(Cl)cc2Cl)c2c1cc1oc(=O)c(=O)n3cnc2c13`, for which the GI50 is 19.7 µM in the assay on NCI-H226 lung; 11.9 µM with OVCAR-4 ovarian; 5.14 µM with K-562 leukemia; 14.2 µM with LOX IMVI melanoma; 7.68 µM in the assay on OVCAR-8 ovarian; 12.8 µM with T-47D breast. For the same compound, the GI50 in the assay with UO-31 renal was 16.1 µM. The TGI is 39.5 µM with NCI-H226 lung; 27.6 µM with OVCAR-4 ovarian; 22.6 µM with K-562 leukemia; 27.3 µM in the assay on LOX IMVI melanoma; 25.8 µM in the assay on OVCAR-8 ovarian; 27.7 µM in the assay on T-47D breast. The compound further registered a TGI in the assay with UO-31 renal of 31.8 µM.

As to `NS(=O)(=O)c1ccc(N2N=C3c4ccccc4CC3C2c2cccs2)cc1` (stereo unspecified), the GI50 is over 100 µM in the assay with OVCAR-4 ovarian; 5.75 µM with K-562 leukemia; 19.1 µM with LOX IMVI melanoma; 15.3 µM in the assay with OVCAR-8 ovarian; 66.9 µM in the assay on T-47D breast; 21.8 µM in the assay with UACC-62 melanoma. For the same compound, in the assay with UO-31 renal, the GI50 is 39.4 µM. Also, the TGI in the assay on OVCAR-4 ovarian is over 100 µM; in the assay with K-562 leukemia, 81.9 µM; in the assay on LOX IMVI melanoma, 42.6 µM; in the assay on OVCAR-8 ovarian, 40.1 µM; with T-47D breast it was over 100 µM; in the assay on UACC-62 melanoma, 44.3 µM. For the same compound, the TGI in the assay on UO-31 renal is over 100 µM.

For the compound `O=C(Nc1ccc(F)cc1F)c1cc(Cl)ccc1O`, the GI50 with NCI-H226 lung is 1.29 µM; in the assay on OVCAR-4 ovarian, 0.636 µM; in the assay with LOX IMVI melanoma it was 1.73 µM; in the assay with OVCAR-8 ovarian it was 2.38 µM; in the assay on T-47D breast it was 0.473 µM; in the assay on UACC-62 melanoma, 0.489 µM. Also, the GI50 in the assay on UO-31 renal was 1.15 µM. Further, the TGI in the assay on NCI-H226 lung is 5.73 µM; in the assay on OVCAR-4 ovarian, over 100 µM; in the assay on LOX IMVI melanoma it was 12.6 µM; with OVCAR-8 ovarian, 13.3 µM; with T-47D breast, 5.5 µM; in the assay with UACC-62 melanoma it was 3.03 µM. In the assay on UO-31 renal, this compound came in with a TGI of 6.18 µM.

On to `COc1ccc(Nc2nc3ccccc3c3occc23)cc1`, for which the GI50 was 9.2 µM with OVCAR-4 ovarian; 6.74 µM in the assay on K-562 leukemia; 0.649 µM in the assay on LOX IMVI melanoma; 8.51 µM with OVCAR-8 ovarian; 5.48 µM in the assay on UACC-62 melanoma; 12.3 µM in the assay on UO-31 renal. Also, the TGI in the assay on OVCAR-4 ovarian was 39.7 µM; with K-562 leukemia it was over 50 µM; in the assay with LOX IMVI melanoma, 5.32 µM; with OVCAR-8 ovarian it was 22.7 µM; with UACC-62 melanoma it was 11.4 µM; with UO-31 renal, over 50 µM.

As to `CCc1ccccc1NC(=O)/C=C/c1ccccc1`, the TGI in the assay on NCI-H226 lung, in the assay on OVCAR-4 ovarian, in the assay on K-562 leukemia, in the assay with LOX IMVI melanoma, with OVCAR-8 ovarian and in the assay with T-47D breast was over 100 µM each time. Also, in the assay on UACC-62 melanoma, the TGI was over 100 µM.
